Laboratory results reported in BigSolDB 2.1.

C1CC1N1C2C3N(C4CC4)C1C1N(C4CC4)C(C(N1C1CC1)N3C1CC1)N2C1CC1
solubility (mole fraction)
Conditions	278.15 K	283.15 K	288.15 K	293.15 K	298.15 K	303.15 K	308.15 K	313.15 K	318.15 K
in 1,1,2-trichloroethane	0.00866	0.00991	0.0113	0.0127	0.0143	0.0161	0.0182	0.0206	0.0234
in 1,2-dichloroethane	0.00228	0.00279	0.00343	0.00421	0.00513	0.00624	0.00752	0.00903	0.0108
in acetone	0.000269	0.000333	0.000411	0.000503	0.000611	0.000736	0.000875	0.00103	0.0012
in acetonitrile	5.71e-05	6.68e-05	7.76e-05	8.91e-05	0.000101	0.000114	0.000128	0.000143	0.000159
in chloroform	0.0231	0.0263	0.0297	0.0332	0.0367	0.0405	0.0444	–	–
in cyclohexane	–	0.00931	0.0111	0.0132	0.0157	0.0186	0.0218	0.0255	0.0297
in dichloromethane	0.0129	0.0147	0.0169	0.0194	0.0222	0.0255	0.0291	–	–
in ethanol	0.000225	0.000283	0.00036	0.000452	0.000557	0.000675	0.000805	0.000951	0.00111
in ethyl acetate	0.00121	0.0014	0.00168	0.00204	0.00249	0.00305	0.00373	0.00455	0.00552
in methanol	4.66e-05	7.71e-05	0.00011	0.000144	0.00018	0.000219	0.000259	0.0003	0.000341
in n-hexane	0.00406	0.00447	0.00507	0.00588	0.00692	0.00819	0.00973	0.0116	0.0138
in tetrachloromethane	0.0269	0.0298	0.0333	0.0372	0.0415	0.0461	0.0511	0.0568	0.0632
